The values that follow come from publication PMC12736255, “Reinvestigating Pyrrol-2-One-Based Compounds: From Antimicrobial Agents to Promising Antitumor Candidates” (Pharmaceuticals, 2025).

Series [1] relates to KM12. The experiment in a line: NCI-60 5-dose screen. The class given is cell-based, human. Particulars: for GI50 / CC50: Homo sapiens; for CC50: read-out: LC50 (the source's name).
The test system of series [2] is MOLT-4. The experiment in a line: NCI-60 5-dose screen. Format: cell-based, human. As to conditions: for GI50 / CC50: Homo sapiens; for CC50: read-out: LC50 (the source's name).
The test system of series [3] is A549/ATCC. Briefly: NCI-60 5-dose screen. Particulars: for GI50 / CC50: Homo sapiens; for CC50: read-out: LC50 (the source's name). The class given is cell-based, human.
The test system of series [4] is MDA-MB-468. Briefly: NCI-60 5-dose screen. Format: cell-based, human. As to conditions: for GI50 / CC50: Homo sapiens; for CC50: read-out: LC50 (the source's name).
Series [5] relates to ACHN. Briefly: NCI-60 5-dose screen. Format: cell-based, human. As to conditions: for GI50 / CC50: Homo sapiens; for CC50: read-out: LC50 (the source's name).
The subject of series [6] is SK-MEL-2. Briefly: NCI-60 5-dose screen. Format: cell-based, human. As to conditions: for GI50 / CC50: Homo sapiens; for CC50: read-out: LC50 (the source's name).
The test system of series [7] is MDA-MB-231/ATCC. Briefly: NCI-60 5-dose screen. Format: cell-based, human. As to conditions: for GI50 / CC50: Homo sapiens; for CC50: read-out: LC50 (the source's name).
Series [8] concerns SNB-75. The experiment in a line: NCI-60 5-dose screen. Format: cell-based, human. Particulars: for GI50 / CC50: Homo sapiens; for CC50: read-out: LC50 (the source's name).
The subject of series [9] is SW-620. Briefly: NCI-60 5-dose screen. Format: cell-based, human. Particulars: for GI50 / CC50: Homo sapiens; for CC50: read-out: LC50 (the source's name).
In series [10] the test system is LOX IMVI. The experiment in a line: NCI-60 5-dose screen. Format: cell-based, human. As to conditions: for GI50 / CC50: Homo sapiens; for CC50: read-out: LC50 (the source's name).
Series [11] deals with NCI-H226. The experiment in a line: NCI-60 5-dose screen. The class given is cell-based, human. As to conditions: for GI50 / CC50: Homo sapiens; for CC50: read-out: LC50 (the source's name).
Series [12] has as its system A498. The experiment in a line: NCI-60 5-dose screen. Format: cell-based, human. Particulars: for GI50 / CC50: Homo sapiens; for CC50: read-out: LC50 (the source's name).
Series [13] concerns U251. The experiment in a line: NCI-60 5-dose screen. Format: cell-based, human. Particulars: for GI50 / LC50 (50% lethal concentration): Homo sapiens, U-251.
The test system of series [14] is PC-3. Briefly: NCI-60 5-dose screen. Format: cell-based, human. Particulars: for GI50 / CC50: Homo sapiens; for CC50: read-out: LC50 (the source's name).
In series [15] the test system is COLO 205. Briefly: NCI-60 5-dose screen. Format: cell-based, human. As to conditions: for GI50 / CC50: Homo sapiens; for CC50: read-out: LC50 (the source's name).
For series [16], the system named is SK-OV-3. The experiment in a line: NCI-60 5-dose screen. Format: cell-based, human. Particulars: for GI50 / CC50: Homo sapiens; for CC50: read-out: LC50 (the source's name).
In series [17] the test system is IGROV1. The experiment in a line: NCI-60 5-dose screen. Format: cell-based, human. As to conditions: for GI50 / CC50: Homo sapiens; for GI50: IGROV-1; for CC50: IGROV-1, read-out: LC50 (the source's name).
The test system of series [18] is OVCAR-4. The experiment in a line: NCI-60 5-dose screen. Format: cell-based, human. As to conditions: for GI50 / CC50: Homo sapiens; for CC50: read-out: LC50 (the source's name).
Series [19] has as its system HS 578T. The experiment in a line: NCI-60 5-dose screen. The class given is cell-based, human. Particulars: for GI50 / CC50: Homo sapiens; for CC50: read-out: LC50 (the source's name).
For series [20], the system named is CAKI-1. Briefly: NCI-60 5-dose screen. Particulars: for GI50 / CC50: Homo sapiens; for CC50: read-out: LC50 (the source's name). Format: cell-based, human.
Series [21] deals with LN-229. Briefly: CellTiter-Glo 2.0 cytotoxicity, glioblastoma. Format: cell-based, human. Particulars: LN-229, 24 h. The method, then: (§1) Cytotoxicity of compounds was assessed using the CellTiter-Glo® 2.0 Assay (Promega, Madison, WI, USA) on human gingival fibroblasts (HGF), osteosarcoma (HOS and MG-63) and glioblastoma (LN-229 and U-118MG) cells, according to the manufacturer’s instructions. HGF, HOS, MG-63 and U-118MG cells were purchased from Cytion GmbH, Eppelheim, Germany, and LN-229 (CRL-2611) from the American Type Culture Collection (ATCC), Manassas, VA, USA. Cells were seeded (50,000 cells/mL—HGF, 100,000 cells/mL—tumor cells) into 96-well opaque white tissue culture-treated plates and allowed to adhere overnight in αMEM medium with 10% fetal bovine serum and 1% antibiotic-antimycotic (all from PAN—Biotech GmbH, Aidenbach, Germany). Cells were incubated with compounds (10 or 50 µM) for 24 h, then CellTiter-Glo® reagent was added and luminescence was recorded using a FLUOstar® Omega microplate reader (BMG LABTECH, Ortenberg, Germany). The experiments were carried out in triplicate, and the viability of treated cells was expressed as a percentage of the viability of control cells (untreated). Data were represented as means ± standard deviations. Stock solutions of compounds were prepared in DMSO, then diluted in complete cell culture media. […] Data were analyzed with independent two-tailed (Student’s) t-test, considering p < 0.05 statistically significant.

For series [22], the system named is U-118MG. The experiment in a line: CellTiter-Glo 2.0 cytotoxicity, glioblastoma. Format: cell-based, human. As to conditions: 50 µM, 24 h. The method, then:
as §1

The test system of series [23] is HL-60(TB). The experiment in a line: NCI-60 5-dose screen. The class given is cell-based, human. As to conditions: for GI50 / CC50: Homo sapiens; for CC50: read-out: LC50 (the source's name).
The subject of series [24] is Gram-positive and Gram-negative bacteria. On the set-up: method as in PMID 38398524. Particulars: cited from earlier work.
Series [25] has as its system osteosarcoma (HOS and MG-63) cells. The experiment in a line: CellTiter-Glo 2.0 cytotoxicity, osteosarcoma. Particulars: osteosarcoma cell lines, 10 and 50 µM, 24 h. The class given is cell-based, human. Here is the method: as §1
Series [26] concerns fungal strains. Further details: method as in PMID 38398524. As to conditions: cited from earlier work.

As to `O=C1C(Nc2ccc(I)cc2)=CC(c2ccc(C(F)(F)F)cc2)N1c1ccc(I)cc1` (stereo not drawn) [3e], the TGI in [1], in [2], in [3], in series [4], in series [5] and in [6] was >100 µM each time. Moreover, the TGI in [7] was >100 µM; in [8], 5.06 µM; in [9], >100 µM; in series [10], >100 µM; in series [11] it was >100 µM; in [12], 3.56 µM. Besides, the TGI in series [13] was >100 µM; in series [14], >100 µM; in series [15], >100 µM; in series [16] it was >100 µM; in [17], >100 µM; in series [18], 4.41 µM. The TGI in series [19] is 9.97 µM; in series [20] it was >100 µM; in series [23], >100 µM. The GI50 in series [1] is > 100 µM; in series [2] it was 2.92 µM; in series [3], > 100 µM; in series [4] it was 3.24 µM; in [5], 4.05 µM; in [6], > 100 µM. Also, the GI50 was 5.36 µM in series [7]; 2.6 µM in series [8]; > 100 µM in [9]; > 100 µM in [10]; 8.48 µM in [11]; 1.95 µM in series [12]. In addition, the GI50 was 8.97 µM in [13]; 9.99 µM in [14]; 4.57 µM in series [15]; > 100 µM in series [16]; > 100 µM in [17]; 1.82 µM in series [18]. The values for the GI50 in series [19], in series [20] and in [23] were 3.45 µM, 3.72 µM and 4.48 µM, respectively. Besides, the CC50 in series [1], in [2], in series [3], in [4], in series [5] and in series [6] was > 100 µM in each case. Besides, the CC50 was > 100 µM in series [7]; 9.85 µM in series [8]; > 100 µM in series [9]; > 100 µM in [10]; > 100 µM in series [11]; 6.5 µM in series [12]. Moreover, the CC50 in series [14], in series [15], in series [16], in series [17], in series [18] and in [19] was > 100 µM throughout. The CC50 in series [20] and in [23] was > 100 µM each time. In addition, the LC50 (50% lethal concentration) in series [13] is > 100 µM. For the same compound, the “cytotoxicity (activity in words)” value is “ineffective” in [21] and “moderate activity” in series [22].

Turning to `O=C1C(Nc2ccc(I)cc2)=CC(c2ccc(O)cc2)N1c1ccc(I)cc1` (stereo not drawn) [3g], the “antibacterial activity (in words)” value in [24] is on record as “highest antibacterial activity”. Also, the “cytotoxicity (activity in words)” value in series [25] is given as “notable activity”; in series [21], “ineffective”; in [22], “moderate activity”.

`COc1ccccc1C1C=C(Nc2ccc(I)cc2)C(=O)N1c1ccc(I)cc1` (stereo not drawn) [3i]: the “antifungal activity (in words)” value in series [26] is on record as “most effective against fungal strains”.

Turning to `N#Cc1ccc(C2C=C(Nc3ccc(I)cc3)C(=O)N2c2ccc(I)cc2)cc1` (stereo not drawn) [3l], the TGI in [1], in series [2], in series [3], in series [4], in series [5] and in [6] was >100 µM in each case. The TGI is 9.63 µM in [7]; 3.42 µM in series [8]; >100 µM in series [9]; >100 µM in series [10]; >100 µM in series [11]; >100 µM in series [12]. Further, the TGI in series [13] is >100 µM; in series [14], >100 µM; in series [15], >100 µM; in series [16], >100 µM; in series [17] it was >100 µM; in series [18], 1.69 µM. The TGI in series [19] is 5.64 µM; in [20] it was >100 µM; in series [23], >100 µM. Moreover, the GI50 is 9.7 µM in series [1]; 2.11 µM in series [2]; 8.08 µM in [3]; 2.7 µM in series [4]; 5.36 µM in series [5]; 3.7 µM in series [6]. Further, the GI50 in [7] came to 2.5 µM; in series [8] it was 1.34 µM; in [9], 5.91 µM; in [10], 3.38 µM; in [11] it was 4.42 µM; in series [12] it was 2.99 µM. The GI50 in series [13] was 4.17 µM; in series [14], 2.4 µM; in series [15], 5.29 µM; in series [16], 6.41 µM; in series [17] it was 8.67 µM; in series [18] it was 0.422 µM. For the same compound, the GI50 in series [19] was 2.1 µM; in [20], 9.48 µM; in series [23] it was > 100 µM. For the same compound, the CC50 in [1], in series [2], in series [3], in series [4], in [5] and in [6] was > 100 µM each time. Moreover, the CC50 in series [7] was > 100 µM; in series [8], 8.76 µM; in series [9], > 100 µM; in series [10], > 100 µM; in series [11], > 100 µM; in series [12], > 100 µM. Further, the CC50 in series [14] was > 100 µM; in series [15], > 100 µM; in [16], > 100 µM; in series [17] it was > 100 µM; in series [18] it was 4.82 µM; in series [19], > 100 µM. Further, the CC50 in series [20] and in [23] was > 100 µM in each case. In addition, the LC50 (50% lethal concentration) in series [13] was > 100 µM. The “antifungal activity (in words)” value in series [26] is “most effective against fungal strains”. Moreover, the “cytotoxicity (activity in words)” value in [21] was “ineffective”; in series [22] it was “moderate activity”.

In the case of `O=C1C(Nc2ccc(I)cc2)=CC(c2ccco2)N1c1ccc(I)cc1` (stereo not drawn) [3m], in series [24], the “antibacterial activity (in words)” value is listed as “highest antibacterial activity”.

On to `O=C1C(Nc2ccc(I)cc2)=CC(c2ccc3c(c2)OCO3)N1c1ccc(I)cc1` (stereo not drawn) [3n], for which the “antibacterial activity (in words)” value in series [24] was “highest antibacterial activity”.
